{"source": "paper PMC9719519", "about": "“Non-classical ferroptosis inhibition by a small molecule targeting PHB2” (Nature Communications, 2022)", "experiment_in_all_cases": "biochemical", "design_in_all_cases": "Eurofins recombinant human kinase profiling, remaining kinase activity as % of control, 10 uM ATP", "settings_in_all_cases": "ATP 10 uM; read-out: %Ctrl@10 μM", "key": {"[1]": {"molecular_target": "T1, PDGFRβ(h) (Homo sapiens, UniProt P09619)", "T1 construct": "gene PDGFRB", "source_text": "(§1) To rapidly determine the biological target of YL-939, we first tested the activity of YL-939 against a panel of 401 recombinant human protein kinases by using the kinase profiling assay provided by Eurofins, since kinases are often the key components in various signal pathways[35],[36]. […] We then carried out affinity-based proteome profiling assay (ABPP) coupled with bioimaging to identify the biological target of YL-939 (Fig. 4A). To this end, we designed and synthesized a photoaffinity probe, YL-939-1 (Fig. 4A and Supplementary Fig. 5), which is YL-939 attached by a photo-crosslinker (L3) that contains a photo-reactive group diazirine and a clickable alkyne handle."}, "[2]": {"molecular_target": "T2, CaMKIß(h) (Homo sapiens, UniProt Q6P2M8)", "T2 construct": "gene PNCK", "source_text": "as §1"}, "[3]": {"molecular_target": "T3, CaMKIIδ(h) (Homo sapiens, UniProt Q13557)", "T3 construct": "gene CAMK2D", "source_text": "as §1"}, "[4]": {"molecular_target": "T4, cKit(V560G)(h) (Homo sapiens, UniProt P10721, V560G)", "T4 construct": "gene KIT", "source_text": "as §1"}, "[5]": {"molecular_target": "T5, ALK2(h) (Homo sapiens, UniProt Q04771)", "T5 construct": "gene ACVR1", "source_text": "as §1"}, "[6]": {"molecular_target": "CDK7/cyclinH/MAT1(h) (Homo sapiens, UniProt P50613)", "source_text": "as §1"}, "[7]": {"molecular_target": "Lyn(h) (Homo sapiens, UniProt P07948)", "source_text": "as §1"}, "[8]": {"molecular_target": "T6, Tie2 (h) (Homo sapiens, UniProt Q02763)", "T6 construct": "gene TEK", "source_text": "as §1"}, "[9]": {"molecular_target": "SIK2(h) (Homo sapiens, UniProt Q9H0K1)", "sequence (Q9H0K1 whole entry)": "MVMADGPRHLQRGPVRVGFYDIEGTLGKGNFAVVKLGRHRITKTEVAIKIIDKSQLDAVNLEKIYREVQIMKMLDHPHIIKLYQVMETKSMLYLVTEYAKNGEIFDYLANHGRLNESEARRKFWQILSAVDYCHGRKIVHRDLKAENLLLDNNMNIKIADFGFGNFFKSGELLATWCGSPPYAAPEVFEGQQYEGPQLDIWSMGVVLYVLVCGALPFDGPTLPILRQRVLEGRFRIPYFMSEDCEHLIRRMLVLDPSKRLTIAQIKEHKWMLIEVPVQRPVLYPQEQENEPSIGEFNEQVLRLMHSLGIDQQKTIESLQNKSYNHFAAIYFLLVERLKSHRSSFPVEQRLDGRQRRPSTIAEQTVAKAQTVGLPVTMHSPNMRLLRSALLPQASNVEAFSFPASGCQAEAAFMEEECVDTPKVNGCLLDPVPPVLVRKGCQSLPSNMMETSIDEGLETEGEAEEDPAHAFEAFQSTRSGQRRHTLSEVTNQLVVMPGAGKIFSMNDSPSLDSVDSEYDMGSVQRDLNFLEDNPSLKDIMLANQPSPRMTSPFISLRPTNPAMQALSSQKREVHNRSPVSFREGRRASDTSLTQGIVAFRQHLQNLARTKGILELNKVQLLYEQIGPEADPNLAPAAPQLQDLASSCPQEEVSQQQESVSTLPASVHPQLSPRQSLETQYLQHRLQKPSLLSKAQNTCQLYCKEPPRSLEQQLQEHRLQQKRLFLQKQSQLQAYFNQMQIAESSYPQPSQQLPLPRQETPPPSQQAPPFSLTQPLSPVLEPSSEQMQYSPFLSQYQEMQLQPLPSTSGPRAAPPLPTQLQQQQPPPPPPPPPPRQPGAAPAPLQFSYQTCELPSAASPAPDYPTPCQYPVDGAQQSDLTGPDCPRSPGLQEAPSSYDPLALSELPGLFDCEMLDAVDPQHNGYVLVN", "source_text": "as §1"}, "[10]": {"molecular_target": "HIPK1(h) (Homo sapiens, UniProt Q86Z02)", "sequence (Q86Z02 whole entry)": "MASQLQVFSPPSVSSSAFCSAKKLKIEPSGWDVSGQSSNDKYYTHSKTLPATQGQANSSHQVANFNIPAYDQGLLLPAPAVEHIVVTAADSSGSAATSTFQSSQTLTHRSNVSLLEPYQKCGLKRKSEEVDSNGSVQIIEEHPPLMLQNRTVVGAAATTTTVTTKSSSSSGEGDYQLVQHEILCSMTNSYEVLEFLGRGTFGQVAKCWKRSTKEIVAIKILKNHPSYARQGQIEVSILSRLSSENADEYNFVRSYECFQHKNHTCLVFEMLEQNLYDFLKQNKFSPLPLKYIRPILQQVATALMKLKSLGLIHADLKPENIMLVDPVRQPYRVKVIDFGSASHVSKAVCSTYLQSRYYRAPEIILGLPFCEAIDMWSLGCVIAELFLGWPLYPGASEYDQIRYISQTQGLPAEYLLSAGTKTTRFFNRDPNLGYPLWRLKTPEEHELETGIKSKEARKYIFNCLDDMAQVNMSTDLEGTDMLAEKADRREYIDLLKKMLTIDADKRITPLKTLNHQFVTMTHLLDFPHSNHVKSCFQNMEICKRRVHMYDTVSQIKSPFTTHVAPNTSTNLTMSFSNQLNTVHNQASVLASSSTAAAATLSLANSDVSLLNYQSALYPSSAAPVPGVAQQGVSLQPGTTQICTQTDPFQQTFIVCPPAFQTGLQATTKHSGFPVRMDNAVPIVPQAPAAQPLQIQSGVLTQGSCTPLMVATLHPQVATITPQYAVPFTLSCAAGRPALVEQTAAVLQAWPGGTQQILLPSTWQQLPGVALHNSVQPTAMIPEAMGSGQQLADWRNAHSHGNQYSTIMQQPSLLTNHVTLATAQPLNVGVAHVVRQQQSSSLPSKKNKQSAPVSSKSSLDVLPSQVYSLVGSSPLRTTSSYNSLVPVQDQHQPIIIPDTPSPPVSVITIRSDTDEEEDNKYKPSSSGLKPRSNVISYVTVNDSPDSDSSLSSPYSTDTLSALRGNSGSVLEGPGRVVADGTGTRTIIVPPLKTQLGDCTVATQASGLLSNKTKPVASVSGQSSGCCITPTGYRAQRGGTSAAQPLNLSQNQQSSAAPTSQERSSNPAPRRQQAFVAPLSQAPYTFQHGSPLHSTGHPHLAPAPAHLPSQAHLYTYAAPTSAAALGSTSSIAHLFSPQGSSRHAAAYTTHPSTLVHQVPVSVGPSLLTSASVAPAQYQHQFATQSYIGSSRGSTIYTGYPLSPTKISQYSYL", "source_text": "as §1"}, "[11]": {"molecular_target": "T7, CRIK(h) (Homo sapiens, UniProt O14578)", "T7 construct": "gene CIT", "source_text": "as §1"}, "[12]": {"molecular_target": "CDK4/cyclinD3(h) (Homo sapiens, UniProt P11802)", "source_text": "as §1"}, "[13]": {"molecular_target": "CDK6/cyclinD3(h) (Homo sapiens, UniProt Q00534)", "sequence (Q00534 whole entry)": "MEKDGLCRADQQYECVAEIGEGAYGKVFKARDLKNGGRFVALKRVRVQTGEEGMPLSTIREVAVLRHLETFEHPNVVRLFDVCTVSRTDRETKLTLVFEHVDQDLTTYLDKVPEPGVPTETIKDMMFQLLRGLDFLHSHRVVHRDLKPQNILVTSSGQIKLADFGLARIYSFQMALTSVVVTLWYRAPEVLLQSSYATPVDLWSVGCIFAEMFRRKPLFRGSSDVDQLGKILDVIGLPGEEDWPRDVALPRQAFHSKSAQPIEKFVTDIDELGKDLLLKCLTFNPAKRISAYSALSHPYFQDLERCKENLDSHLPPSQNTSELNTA", "sequence (P30281 whole entry partner)": "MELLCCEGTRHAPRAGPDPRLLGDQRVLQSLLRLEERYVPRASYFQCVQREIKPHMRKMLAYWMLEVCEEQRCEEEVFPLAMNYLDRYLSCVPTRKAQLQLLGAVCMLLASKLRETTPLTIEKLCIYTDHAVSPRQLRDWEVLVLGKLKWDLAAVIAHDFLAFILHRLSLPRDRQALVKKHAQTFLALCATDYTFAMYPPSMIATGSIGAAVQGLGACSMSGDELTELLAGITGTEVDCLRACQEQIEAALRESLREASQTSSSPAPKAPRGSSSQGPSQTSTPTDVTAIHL", "source_text": "as §1"}, "[14]": {"molecular_target": "T8, MLK3(h) (Homo sapiens, UniProt Q16584)", "T8 construct": "gene MAP3K11", "source_text": "as §1"}, "[15]": {"molecular_target": "NEK3(h) (Homo sapiens, UniProt P51956)", "source_text": "as §1"}, "[16]": {"molecular_target": "T9, CaMKIIα(h) (Homo sapiens, UniProt Q9UQM7)", "T9 construct": "gene CAMK2A", "source_text": "as §1"}, "[17]": {"molecular_target": "T10, MLK2(h) (Homo sapiens, UniProt Q02779)", "T10 construct": "gene MAP3K10", "source_text": "as §1"}, "[18]": {"molecular_target": "T11, NDR2(h) (Homo sapiens, UniProt Q9Y2H1)", "T11 construct": "gene STK38L", "source_text": "as §1"}, "[19]": {"molecular_target": "EphA3(h) (Homo sapiens, UniProt P29320)", "sequence (P29320 whole entry)": "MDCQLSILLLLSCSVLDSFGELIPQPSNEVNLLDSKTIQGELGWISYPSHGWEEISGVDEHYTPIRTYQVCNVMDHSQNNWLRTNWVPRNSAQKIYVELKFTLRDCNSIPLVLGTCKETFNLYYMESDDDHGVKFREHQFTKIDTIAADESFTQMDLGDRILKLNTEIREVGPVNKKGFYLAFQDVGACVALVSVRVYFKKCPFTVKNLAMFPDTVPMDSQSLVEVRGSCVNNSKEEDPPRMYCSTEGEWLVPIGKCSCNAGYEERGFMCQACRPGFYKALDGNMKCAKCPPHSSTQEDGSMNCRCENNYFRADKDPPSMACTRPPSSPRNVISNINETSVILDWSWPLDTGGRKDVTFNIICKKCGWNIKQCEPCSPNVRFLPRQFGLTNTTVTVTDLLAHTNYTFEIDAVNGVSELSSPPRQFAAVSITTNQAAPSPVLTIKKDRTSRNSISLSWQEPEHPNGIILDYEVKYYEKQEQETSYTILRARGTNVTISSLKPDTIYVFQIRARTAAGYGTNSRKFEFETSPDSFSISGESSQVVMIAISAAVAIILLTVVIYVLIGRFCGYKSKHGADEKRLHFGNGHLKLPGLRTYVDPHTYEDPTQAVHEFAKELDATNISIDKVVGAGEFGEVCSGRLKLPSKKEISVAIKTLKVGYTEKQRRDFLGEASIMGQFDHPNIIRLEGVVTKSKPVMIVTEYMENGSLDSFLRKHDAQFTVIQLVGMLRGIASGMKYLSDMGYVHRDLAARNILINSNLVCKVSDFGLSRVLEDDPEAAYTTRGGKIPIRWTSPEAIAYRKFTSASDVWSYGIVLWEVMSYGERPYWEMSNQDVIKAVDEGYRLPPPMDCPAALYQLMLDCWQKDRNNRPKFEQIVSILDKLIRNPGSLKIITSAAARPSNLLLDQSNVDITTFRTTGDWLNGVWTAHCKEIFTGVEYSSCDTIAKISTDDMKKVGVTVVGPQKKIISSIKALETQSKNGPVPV", "source_text": "as §1"}, "[20]": {"molecular_target": "T12, Abl(Y253F)(h) (Homo sapiens, UniProt P00519, Y253F)", "T12 construct": "gene ABL1", "source_text": "as §1"}, "[21]": {"molecular_target": "T13, Tie2(Y897S)(h) (Homo sapiens, UniProt Q02763, Y897S)", "T13 construct": "gene TEK", "T13 sequence (Q02763 whole entry Y897S)": "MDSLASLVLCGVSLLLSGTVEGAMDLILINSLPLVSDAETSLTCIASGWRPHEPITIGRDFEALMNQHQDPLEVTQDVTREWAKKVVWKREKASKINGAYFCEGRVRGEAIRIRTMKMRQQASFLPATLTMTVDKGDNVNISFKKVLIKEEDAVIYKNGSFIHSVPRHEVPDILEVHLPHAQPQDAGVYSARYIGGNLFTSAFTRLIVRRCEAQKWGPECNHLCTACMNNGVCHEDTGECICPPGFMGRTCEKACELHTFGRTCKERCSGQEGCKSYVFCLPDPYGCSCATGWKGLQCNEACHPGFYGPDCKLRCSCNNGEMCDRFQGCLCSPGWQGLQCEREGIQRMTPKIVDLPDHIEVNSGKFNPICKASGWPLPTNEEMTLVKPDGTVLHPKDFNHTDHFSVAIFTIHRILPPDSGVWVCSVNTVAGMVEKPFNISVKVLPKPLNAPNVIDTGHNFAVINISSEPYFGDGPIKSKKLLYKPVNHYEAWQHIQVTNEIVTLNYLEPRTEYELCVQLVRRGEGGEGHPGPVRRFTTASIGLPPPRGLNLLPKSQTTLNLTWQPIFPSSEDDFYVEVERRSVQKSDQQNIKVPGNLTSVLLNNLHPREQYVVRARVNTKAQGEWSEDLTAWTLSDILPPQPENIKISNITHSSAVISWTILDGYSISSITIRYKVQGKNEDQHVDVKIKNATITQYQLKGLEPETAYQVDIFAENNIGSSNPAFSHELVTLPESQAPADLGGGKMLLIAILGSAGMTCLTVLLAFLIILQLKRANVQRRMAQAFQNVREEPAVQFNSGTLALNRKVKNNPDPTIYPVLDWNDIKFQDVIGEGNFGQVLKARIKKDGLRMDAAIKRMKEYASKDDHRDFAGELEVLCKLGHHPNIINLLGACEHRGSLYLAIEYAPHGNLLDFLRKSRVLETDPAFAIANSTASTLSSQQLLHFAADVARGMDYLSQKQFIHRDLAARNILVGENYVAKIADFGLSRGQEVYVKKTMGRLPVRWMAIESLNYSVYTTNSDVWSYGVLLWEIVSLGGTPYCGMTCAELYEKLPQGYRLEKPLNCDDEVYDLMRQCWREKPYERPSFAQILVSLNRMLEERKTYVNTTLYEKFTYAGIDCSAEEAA", "source_text": "as §1"}, "[22]": {"molecular_target": "CaMKK2(h) (Homo sapiens, UniProt Q96RR4)", "source_text": "as §1"}}, "data": [{"compound": "C1=C(c2nc(-c3cnn(C4CCNCC4)c3)cn3cc(-c4ccccc4)nc23)CCOC1", "note": "[YL-939]", "values": [{"measurement": "remaining activity at 10 µM", "setting": "[1]", "value": 113, "unit": "%"}, {"measurement": "remaining activity at 10 µM", "setting": "[2]", "value": 88, "unit": "%"}, {"measurement": "remaining activity at 10 µM", "setting": "[3]", "value": 68, "unit": "%"}, {"measurement": "remaining activity at 10 µM", "setting": "[4]", "value": 88, "unit": "%"}, {"measurement": "remaining activity at 10 µM", "setting": "[5]", "value": 88, "unit": "%"}, {"measurement": "remaining activity at 10 µM", "setting": "[6]", "value": 92, "unit": "%"}, {"measurement": "remaining activity at 10 µM", "setting": "[7]", "value": 95, "unit": "%"}, {"measurement": "remaining activity at 10 µM", "setting": "[8]", "value": 81, "unit": "%"}, {"measurement": "remaining activity at 10 µM", "setting": "[9]", "value": 94, "unit": "%"}, {"measurement": "remaining activity at 10 µM", "setting": "[10]", "value": 97, "unit": "%"}, {"measurement": "remaining activity at 10 µM", "setting": "[11]", "value": 101, "unit": "%"}, {"measurement": "remaining activity at 10 µM", "setting": "[12]", "value": 80, "unit": "%"}, {"measurement": "remaining activity at 10 µM", "setting": "[13]", "value": 94, "unit": "%"}, {"measurement": "remaining activity at 10 µM", "setting": "[14]", "value": 111, "unit": "%"}, {"measurement": "remaining activity at 10 µM", "setting": "[15]", "value": 102, "unit": "%"}, {"measurement": "remaining activity at 10 µM", "setting": "[16]", "value": 64, "unit": "%"}, {"measurement": "remaining activity at 10 µM", "setting": "[17]", "value": 82, "unit": "%"}, {"measurement": "remaining activity at 10 µM", "setting": "[18]", "value": 87, "unit": "%"}, {"measurement": "remaining activity at 10 µM", "setting": "[19]", "value": 73, "unit": "%"}, {"measurement": "remaining activity at 10 µM", "setting": "[20]", "value": 123, "unit": "%"}, {"measurement": "remaining activity at 10 µM", "setting": "[21]", "value": 91, "unit": "%"}, {"measurement": "remaining activity at 10 µM", "setting": "[22]", "value": 83, "unit": "%"}]}]}
